Measured values as given in patent EP2711367A1, “New spiroepoxide tetrahydrobenzo-triazoles and -imidazoles and their use as MetAP-II inhibitors” (Deutsches Krebsforschungszentrum, priority 2012, dated 2014).
Read-outs that look alike come from different tables or passages of the source.

Experiments:
[1] = molecular target: E. coli MetAP (Escherichia coli, UniProt P0AE18); experiment: MetAP inhibitory activity, Met-Gly-Met-Met substrate, HPLC detection of Gly-Met-Met; type: biochemical; conditions: for inhibition at 25 µM: read-out: E. Coli % inhibition; for E. Coli % inhibition: single concentration: inhibitor 25 µM, enzyme 50 nM, 20 minutes substrate incubation at 37 °C
Procedure: (§1) The below protocol describes the measurement of the inhibitory activity of the compounds of the present invention by using E. coli MetAP, hsMetAP-I, and hsMetAP-II.
(§2) Inhibition activity of compounds was studied using the tetrapeptide substrate Met-Gly-Met-Met (Bachem) followed by HPLC analysis of the product Gly-Met-Met. The assay was performed in 96 well plates (Greiner) at a total reaction volume of 100 µl. […] A positive control with DMSO solution instead of inhibitor at the corresponding concentration was prepared. Then the substrate Met-Gly-Met-Met was added to a final concentration of 400 µM. After an incubation period of 15 minutes (HsMetAP-I), 20 minutes (EcMetAP) or 60 minutes (HsMetAP-II) at 37 °C, the enzyme reaction was stopped by adding 10 µl 4 % trifluoroacetic acid. The plate was centrifuged at 1000 x g for 10 minutes.
(§3) Detection of the product Gly-Met-Met was performed by HPLC (Jasco), and typically using the following, or equivalent conditions: C18 column (Dr. Maisch, ReproSil-Pur® 120 ODS-3, 3 µm, 50 x 2 mm). 80 µl of sample were applied on the column and eluted with mobile phase A (water and 0.1 % trifluoroacetic acid, filtered, degassed) and B (acetonitrile and 0.1 % trifluoroacetic acid, degassed) over 8 minutes.
(§4) Percentage inhibition was calculated as the relation of Gly-Met-Met amount resulting in inhibited and uninhibited enzyme reaction (positive control). […] The values were determined in relation to positive controls with equal DMSO contents. The inhibition values for the varying concentrations of inhibitor were then fitted to a logarithmic dose-response curve and the IC50 values were calculated from the equation thus obtained.

[2] = molecular target: hsMetAP-I (Homo sapiens, UniProt P53582); experiment: as above; type: biochemical, hs; conditions: for inhibition at 25 µM: read-out: hsMetAP-I % inhibition
Procedure: as §1, §2, §3, §4

[3] = molecular target: hsMetAP-II (Homo sapiens, UniProt P50579); experiment: as above; type: biochemical, hs
Procedure: as §1
Inhibition activity of compounds was studied using the tetrapeptide substrate Met-Gly-Met-Met (Bachem) followed by HPLC analysis of the product Gly-Met-Met. The assay was performed in 96 well plates (Greiner) at a total reaction volume of 100 µl. […] Then the substrate Met-Gly-Met-Met was added to a final concentration of 400 µM. After an incubation period of 15 minutes (HsMetAP-I), 20 minutes (EcMetAP) or 60 minutes (HsMetAP-II) at 37 °C, the enzyme reaction was stopped by adding 10 µl 4 % trifluoroacetic acid. The plate was centrifuged at 1000 x g for 10 minutes.
as §3, §4

[4] = system: human umbilical vein endothelial cells (HUVEC); experiment: HUVEC growth arrest, crystal violet staining; type: cell-based; conditions: Homo sapiens, HUVEC, 240 h, growth over 10 days, 0-100 µM, OD at 595 nm; read-out: HUVEC IC50
Source text: For the measurement of the HUVEC growth arrest (Example 19) and the used materials and equipment were:
• Cells: Primary human umbilical vein cells (HUVEC) were obtained from GIBCO (Cat. C-015-5C). • Cell culture medium: Medium 200 supplemented with LSGS (Gibco, Cat. M-200-500). • Trypsin/EDTA (Gibco, Cat R-001-100) • Trypsin Neutralizer solution (Gibco, Cat R-002-100). • Crystal violet (Merck / Cat. no. 1408) • Ethanol (Riedel-de-Haen / Cat. no. 32205) • Acetic acid (Riedel-de-Haen / Cat. no. 33209) • Culture flasks: Coming, 430168 • 96 well plates: Greiner, 655 101
• Microtiter pipettes: •Brand Transferpette-8, • Gilson Pipetman 20 and 200 Laminar air flow cabinet: Gelman, Celaire • ELISA reader: Thermo, Multiskan Ascent • Microscope: Leitz Diavert • Balance: Sartorius RC 210 D • CO2 incubator: Heraeus CO2-Auto-Zero • Centrifuge: Heraeus Biofuge primo • Cell counter: Assistent, Neubauer hematocytometer
Crystal violet solution: • Crystal violet (Merck) was dissolved in ethanol (PA quality, Roth) to a concentration of 10 %. The solution was diluted with ddH2O 1:20.
Test compounds: • Compounds of the present invention were dissolved at a concentration of 10 mM in DMSO (Roth, Cat. 47201). Stock solutions of test compounds were diluted 1:10 not earlier than 1 hour before the assay was made.
• 1. HUVEC cells were seeded in 96-well plates ([…]). • 2. 6 hours later test compounds were added in triplicates Concentrations of test compound: 0, 1.6, 3.2, 6.3, 12.5, 25, 50, 100 µM. Fresh medium and test compounds were added every 48 hr. • 3. One 96 well plate (t=0) with untreated cells was fixed at the same time point as treatment of cells with test compounds was initiated. • 4. Test plates were incubated for 10 days in a CO2 incubator. • 5. Fixation of cells: Wells were washed with 100 µL/well PBS. PBS was decanted and 100 µL of 3 % formaldehyde/well was added. After 5 min, formaldehyde was decanted and plates were dried upside down on blotting paper overnight at room temperature. • 6. Staining: 0.1 mL of crystal violet solution was added to each well with a 12-channel pipette. After incubation for 5 min at room temperature, the crystal violet solution was decanted and plates were washed 5 x by submersion in 3 L fresh water. • 7. After drying (plates were dried on blotting paper upside down overnight) 0.1 mL of ethanol/acetic acid (99:1) was added to each well and the optical density at 595 nm was determined in an ELISA reader.
The evaluation of the growth inhibitory activity was carried out as follows: • Definitions: Growth: Mean OD at t=10 d - mean OD at t=0. • Evaluation: Dose response curves were established by plotting growth against concentration of compounds using Microsoft Excel.

[5] = single concentration: inhibitor 25 µM, enzyme 50 nM, 15 minutes substrate incubation at 37 °C
[6] = enzyme 50 nM, 400 µM Met-Gly-Met-Met, 60 minutes at 37 °C, read-out: hsMetAP-II IC50
[7] = single concentration: inhibitor 25 µM, enzyme 50 nM, 60 minutes substrate incubation at 37 °C, read-out: hsMetAP-II % inhibition
[8] = read-out: hsMetAP-II % inhibition, single concentration: inhibitor 25 µM, enzyme 50 nM, 60 minutes substrate incubation at 37 °C
[9] = hsMetAP-II IC50, enzyme 50 nM, 400 µM Met-Gly-Met-Met, 60 minutes at 37 °C
[10] = single concentration: inhibitor 25 µM, enzyme 50 nM, 60 minutes substrate incubation at 37 °C

Chain of E. coli MetAP (P0AE18 whole entry): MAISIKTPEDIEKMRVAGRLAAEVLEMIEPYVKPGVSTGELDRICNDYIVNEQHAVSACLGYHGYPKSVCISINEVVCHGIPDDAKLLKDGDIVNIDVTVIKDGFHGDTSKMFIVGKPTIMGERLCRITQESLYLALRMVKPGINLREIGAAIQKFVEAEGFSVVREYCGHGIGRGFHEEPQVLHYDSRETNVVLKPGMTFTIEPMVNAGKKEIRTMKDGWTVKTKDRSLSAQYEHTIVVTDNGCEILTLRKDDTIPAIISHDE
Chain of hsMetAP-II (P50579 whole entry): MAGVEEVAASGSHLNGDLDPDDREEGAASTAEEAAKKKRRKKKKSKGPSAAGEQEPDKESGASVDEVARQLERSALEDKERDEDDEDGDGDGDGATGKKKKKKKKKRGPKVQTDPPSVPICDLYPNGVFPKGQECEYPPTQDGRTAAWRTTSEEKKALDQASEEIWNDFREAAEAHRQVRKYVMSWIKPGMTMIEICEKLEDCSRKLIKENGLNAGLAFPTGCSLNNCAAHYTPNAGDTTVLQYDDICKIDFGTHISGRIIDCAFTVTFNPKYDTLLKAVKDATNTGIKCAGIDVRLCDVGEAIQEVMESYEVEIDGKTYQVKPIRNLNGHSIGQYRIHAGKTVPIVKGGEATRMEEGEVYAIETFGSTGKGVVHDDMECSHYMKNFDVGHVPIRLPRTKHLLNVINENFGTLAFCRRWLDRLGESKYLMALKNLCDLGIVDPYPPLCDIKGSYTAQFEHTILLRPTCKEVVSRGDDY

SMILES	inhibition at 25 µM [1]	hsMetAP-I % inhibition [2, 5]	inhibition at 25 µM [3, 7]	inhibition at 25 µM [3, 8]	E. Coli % inhibition [1]	further results
O=C1CCC2(CO2)c2c1nnn2Cc1ccc(F)cc1 (stereo not drawn) [BK-I-178-A]	13 ± 5%	Inactive	100%			IC50 [3, 6]: 870 ± 90 nM; IC50 [4]: 3200 nM
O=C(O[C@@H]1CC[C@]2(CO2)c2c1nnn2Cc1ccc2ccccc2c1)c1ccccc1 (racemic) [JL-III-132-C]	22 ± 7%	Inactive		63 ± 5%		IC50 [3]: 3700 ± 300 nM
COc1ccc(Cn2nnc3c2[C@@]2(CC[C@H]3OC(=O)c3ccccc3)CO2)cc1 (racemic) [UWU-XII-023-D]		Inactive		45 ± 4%	Inactive	IC50 [3, 9]: 17000 ± 12000 nM; IC50 [4]: 2100 nM
COc1ccc(Cn2nnc3c2C2(CCC3OC(=O)C=Cc3cc(OC)c(OC)c(OC)c3)CO2)cc1 (racemic) [UWU-XII-035-A]		Inactive		94 ± 4%	Inactive	inhibitory effect on MetAP-II (in words) [3]: good inhibitory effect; IC50 ([3]; read-out: hsMetAP-II IC50, enzyme 50 nM, 400 µM Met-Gly-Met-Met, 60 minutes at 37 °C): 500 ± 1000 nM
CCCCCCCCn1nnc2c1C1(CCC2=O)CO1 (stereo not drawn) [CJ-II-010]	14 ± 7%		50 ± 2%			inhibition at 25 µM [2, 5]: 12.1 ± 1.5%
O=C1CCC2(CO2)c2c1nnn2Cc1ccc2ccccc2c1 (stereo not drawn) [HHS-I-020-C]	24 ± 8%	Inactive	84.1 ± 3.2%			IC50 [3, 6]: 2700 ± 100 nM
O=C(O[C@@H]1CC[C@]2(CO2)c2c1nnn2Cc1ccccc1)c1ccccc1 (racemic) [JL-III-147-A]	45 ± 7%			93.3 ± 2.1%		inhibition at 25 µM [2]: 15 ± 1%; IC50 [3]: 1300 ± 10 nM
CC(C)NC(=O)O[C@@H]1CC[C@]2(CO2)c2c1nnn2Cc1ccccc1 (racemic) [UWU-XII-128-A]	24 ± 2%	Inactive		100%		inhibitory effect on MetAP-II (in words) [3]: good inhibitory effect; IC50 [3, 9]: 420 ± 70 nM; IC50 [4]: 1200 nM
O=C(O[C@@H]1CC[C@@]2(CO2)c2c1nnn2Cc1ccc2ccccc2c1)c1ccccc1 [JL-III-132-D]		Inactive	15 ± 5%		Inactive	
Cc1ccccc1Cn1nnc2c1C1(CCC2=O)CO1 (stereo not drawn) [BK-I-181-B]		Inactive	100%		Inactive	IC50 [3, 6]: 5100 ± 2900 nM
COc1ccc(Cn2nnc3c2[C@@]2(CC[C@@H]3OC(=O)NC(C)C)CO2)cc1 [(-)-UWU-XII-131-A]		Inactive			Inactive	IC50 [4]: 8200 nM
CC(C)CCn1cnc2c1C1(CCC2=O)CO1 (stereo not drawn) [JL-II-115-A]	25 ± 8%	Inactive				hsMetAP-II % inhibition [3, 10]: Inactive
CCn1nnc2c1C1(CCC2=O)CO1 (stereo not drawn) [CJ-II-007]	22 ± 5%	Inactive				hsMetAP-II % inhibition [3, 10]: Inactive
Cn1cnc2c1C1(CCC2=O)CO1 (racemic) [JL-II-136-A]		Inactive			Inactive	hsMetAP-II % inhibition [3, 10]: Inactive
CC(C)c1ccc(Cn2nnc3c2[C@]2(CC[C@H]3OC(=O)c3ccccc3)CO2)cc1 (racemic) [UWU-XII-036-A]	20 ± 8%	Inactive		59 ± 5%		IC50 [3]: 4700 ± 300 nM
O=C1CCC2(CO2)c2c1nnn2Cc1ccccc1 (stereo not drawn) [HHS-I-027-B]		Inactive	64.5 ± 0.1%		Inactive	IC50 [3, 6]: 13700 ± 3400 nM
COc1ccc(Cn2nnc3c2[C@@]2(CC[C@H]3OC(=O)/C=C/c3cc(OC)c(OC)c(OC)c3)CO2)cc1 (racemic) [UWU-II-035-C]		Inactive		85 ± 11%	Inactive	IC50 [3]: 2020 ± 30 nM
CC(C)c1ccc(Cn2nnc3c2C2(CCC3=O)CO2)cc1 (stereo not drawn) [JL-III-138-A]	50 ± 6%		84 ± 3%			inhibition at 25 µM [2, 5]: 16 ± 2%; IC50 [3, 6]: 5500 ± 3000 nM
CCn1cnc2c1C1(CCC2=O)CO1 (stereo not drawn) [JL-II-137-A]		Inactive			Inactive	hsMetAP-II % inhibition [3, 10]: Inactive
O=C(O[C@@H]1CC[C@@]2(CO2)c2c1nnn2Cc1ccccc1)c1ccccc1 (racemic) [JL-III-147-B]	36 ± 11%	Inactive		59 ± 2%		IC50 [3]: 19100 ± 9000 nM
Cn1nnc2c1C1(CCC2=O)CO1 (racemic) [CJ-II-011]	20 ± 2%					inhibition at 25 µM [2, 5]: 14 ± 7%; hsMetAP-II % inhibition [3, 10]: Inactive
O=C1CCC2(CO2)c2c1ncn2Cc1ccccc1 (stereo not drawn) [JL-III-084-C]		Inactive	24 ± 1%		Inactive	
CCCn1cnc2c1C1(CCC2=O)CO1 (racemic) [JL-II-116-A]		Inactive			Inactive	hsMetAP-II % inhibition [3, 10]: Inactive
COc1ccc(Cn2nnc3c2[C@@]2(CC[C@H]3OC(=O)NC(C)C)CO2)cc1 (racemic) [UWU-XII-131-C]		Inactive			Inactive	IC50 [4]: 2500 nM
CC(C)Cn1cnc2c1C1(CCC2=O)CO1 (stereo not drawn) [JL-II-120-B]		Inactive	12 ± 6%		Inactive	
COc1ccc(Cn2nnc3c2[C@]2(CC[C@H]3OC(=O)NC(C)C)CO2)cc1 (racemic) [UWU-XII-131-A]		Inactive			Inactive	IC50 [4]: 400 nM
